pIC50: −log10 of the molar value.
Columns and labels:
Colo320 cells = assay: Apoptosis assay, Annexin-V-FITC/PI flow cytometry; settings: 3 h induction
Procedure: An apoptosis assay was performed by flow cytometry via the analysis of multidrug-resistant Colo320 cells stained with Annexin-V-FITC and propidium iodide (PI).
Colo320 cells were treated at the indicated concentration of the compounds. The dual parametric dot plots combining Annexin-V (FL1) and PI (FL3) fluorescence show the viable cell population in the lower left quadrant Annexin-V–/PI– (Q4), the early apoptotic cells in the lower right quadrant Annexin-V+/PI– (Q3), and the late apoptotic and necrotic cells in the upper right quadrant Annexin-V+/PI+ (Q2).
The assay was carried out for selected compounds using an Annexin V-FITC Apoptosis Detection Kit (cat. no. APOAF-50TST) from Sigma according to the manufacturer’s instructions. The concentration of the Colo320 cell suspension was adjusted to approximately 0.5 × 10^6 cells/mL in an RPMI 1640 medium, and the cell suspension was distributed in 1 mL of aliquots into a 24-well plate and then incubated overnight at 37 °C and 5% CO2. On the following day, the medium was removed and replaced by 1 mL of RPMI medium containing the compounds except the control samples. […] After the incubation period, the samples were washed with PBS and fresh RPMI 1640 medium was added to the samples. The cells were incubated overnight at 37 °C and 5% CO2. The next day, 200 μL of 0.25% Trypsin (Trypsin-Versen) was added to the samples until cells appeared detached followed by the addition of 400 μL of RPMI 1640 medium supplemented with 10% bovine serum. The cells were collected in Eppendorf tubes and centrifuged at 2000g for 2 min. The harvested cells were resuspended in fresh serum-free RPMI 1640 culture medium. After this step, the apoptosis assay was carried out according to the instructions of the manufacturer. The fluorescence was analyzed immediately using a ParTec CyFlow flow cytometer (Partec GmbH, Münster, Germany).
• Apoptosis and DNA binding studies […]

[1] = system: HCT-116 isogenic p53-knock-out subline; assay: MTT assay, 96 h; type: cell-based, human; settings: read-out: IC50 HCT-116p53ko, mean
Excerpt: (§1) The oncosuppressor protein p53 controls the cellular response to DNA strand breaks induced by cytotoxic drugs or by radiation.[58] The p53 protein may enhance cell chemosensitivity by promoting apoptosis via different mechanisms including activation of proapoptotic genes such as bax and repression of antiapoptotic genes such as bcl-2 or in contrast increase chemoresistance by promoting p21-mediated and p21-independent growth arrest and DNA repair and by activation of antiapoptotic genes such as bcl-x. There is strong evidence that the modulation of drug sensitivity by p53 may be both drug- and cell type-specific.[59] […] Accordingly, essential differences in chemosensitivity were observed between cells with wild-type p53 gene and cells with knocked out p53 gene by homologous recombination.[60]
(§2) Human colonic adenocarcinoma cell lines Colo 205 doxorubicin-sensitive (ATCC-CCL-222) and Colo 320/MDR-LRP multidrug resistant over-expressing ABCB1 (MDR1)-LRP (ATCC-CCL-220.1) were purchased from LGC Promochem, Teddington, UK. The cells were cultured in an RPMI 1640 medium supplemented with 10% heat-inactivated fetal bovine serum, 2 mM L-glutamine, 1 mM Na-pyruvate, and 10 mM HEPES. The semi-adherent human colon cancer cells were detached with Trypsin-Versene (EDTA) solution for 5 min at 37 °C. An MRC-5 human embryonal lung fibroblast cell line (ATCC CCL-171) was purchased from LGC Promochem, Teddington, UK. The cells were cultured in Eagle’s minimal essential medium (EMEM, containing 4.5 g L^–1 glucose) supplemented with a non-essential amino acid mixture, a selection of vitamins, and 10% heat-inactivated fetal bovine serum. The HCT-116 colon carcinoma cells and isogenic p53-knock-out subline were a gift of Prof. Bert Vogelstein from The Johns Hopkins Oncology Center. Cells were cultured in McCoy’s 5A medium supplemented with 10% heat-inactivated fetal bovine serum and 4 mM L-glutamine. All cell lines were incubated at 37 °C, in a 5% CO2, 95% air atmosphere.
(§3) MRC-5 non-cancerous human embryonic lung fibroblast and human colonic adeno-carcinoma cell lines (doxorubicin-sensitive Colo 205 and multidrug resistant Colo 320 colonic adenocarcinoma cells) were used to determine the effect of compounds on cell growth. The effects of increasing concentrations of compounds on cell growth were tested in 96-well flat-bottomed microtiter plates. The compounds were dissolved in DMSO and stock solutions of 10 mM were prepared. These were further diluted in the appropriate cell culture medium by twofold serial dilution starting from 100 or 10 μM for the compounds. The adherent human embryonal lung fibroblast cells were cultured in 96-well flat-bottomed microtiter plates using EMEM supplemented with 10% heat-inactivated fetal bovine serum. The density of the cells was adjusted to 1 × 10^4 cells in 100 μL per well, the cells were seeded for 24 h at 37 °C, 5% CO2, then the medium was removed from the plates containing the cells, and the dilutions of compounds previously made in a separate plate were added to the cells in 200 μL. In the case of the colonic adenocarcinoma cells, the twofold serial dilutions of compounds were prepared in 100 μL of RPMI 1640, horizontally. The semi-adherent colonic adenocarcinoma cells were treated with Trypsin-Versene (EDTA) solution. They were adjusted to a density of 1 × 10^4 cells in 100 μL of RPMI 1640 medium and were added to each well, with the exception of the medium control wells. […]

[2] = system: HCT-116 colon carcinoma cells; assay: MTT assay, 96 h; type: cell-based, human
Excerpt: as §1, §2, §3

SMILES: N.N.[Cl][Pt][Cl] [cisplatin, reference compound]
- Cell death % Q1 (Colo320 cells; 15 µM): 1.64%
- Early apoptosis % Q3 (Colo320 cells; 15 µM): 1.68%
- Late apoptosis and necrosis % Q2 (Colo320 cells; 15 µM): 2.24%
- Cell death % Q1 (Colo320 cells; 30 µM): 0.79%
- Early apoptosis % Q3 (Colo320 cells; 30 µM): 4.90%
- Late apoptosis and necrosis % Q2 (Colo320 cells; 30 µM): 4.07%
- pIC50 [1]: 5.77
- pIC50 [2]: 6.11

Reference: paper PMC8842277, “Highly Antiproliferative Latonduine and Indolo[2,3-c]quinoline Derivatives: Complex Formation with Copper(II) Markedly Changes the Kinase Inhibitory Profile” (Journal of Medicinal Chemistry, 2022)
